Experimental findings from ChEMBL document CHEMBL4387763, “Discovery of novel biaryl sulfonamide based Mcl-1 inhibitors” (Bioorg Med Chem Lett, 2019) are described below.

≈ marks a conversion by molar mass, not a printed value.

T1 sequence (Q07820 whole entry, the tested form may be a part): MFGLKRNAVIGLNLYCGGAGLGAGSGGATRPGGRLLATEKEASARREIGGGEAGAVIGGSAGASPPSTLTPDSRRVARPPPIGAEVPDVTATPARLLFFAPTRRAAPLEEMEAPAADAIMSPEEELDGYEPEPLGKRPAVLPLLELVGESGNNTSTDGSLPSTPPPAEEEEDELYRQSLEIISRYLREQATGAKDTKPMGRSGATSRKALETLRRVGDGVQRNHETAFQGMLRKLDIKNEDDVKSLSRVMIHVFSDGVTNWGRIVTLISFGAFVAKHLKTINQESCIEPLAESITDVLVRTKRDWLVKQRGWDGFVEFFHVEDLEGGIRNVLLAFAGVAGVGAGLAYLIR

One data set addresses T1, Induced myeloid leukemia cell differentiation protein Mcl-1 (Homo sapiens, UniProt Q07820). As to the kind of experiment: Inhibition of […]-labelled BID binding to human MCl-1 (171 to 327 residues) expressed in Escherichia coli BL21 (DE3) by fluorescence polarization assay.
Details: not given
In the case of `Cc1cc(C(=O)N[C@H](Cc2ccccc2)C(N)=O)sc1S(=O)(=O)Nc1cc(C(F)(F)F)ccc1Cl`, the IC50 (commonly the concentration needed to halve the response being measured) amounted to 153 nM.
On the same count and under the same terms, the figure for `Cc1cc(C(=O)NC(Cc2ccccc2)c2ccccc2)sc1S(=O)(=O)Nc1cc(C(F)(F)F)ccc1Cl` (stereo unspecified) is 7100 nM; for `Cc1cc(C(=O)NC[C@H](O)c2ccccc2)sc1S(=O)(=O)Nc1cc(C(F)(F)F)ccc1Cl` it is 470 nM; for `Cc1cc(C(=O)N[C@H](Cc2ccccc2)C(=O)NCCO)sc1S(=O)(=O)Nc1cc(C(F)(F)F)ccc1Cl` it is 112 nM.
On the same count and under the same terms, in the case of `Cc1ccc(S(=O)(=O)Nc2cc(C(F)(F)F)ccc2Cl)c(C)c1` it was 12000 nM.
Still for that read-out and setting: in the case of `Cc1cc(C(=O)N[C@H](CCc2ccccc2)C(=O)O)sc1S(=O)(=O)Nc1cc(C(F)(F)F)ccc1Cl` it was 820 nM; in that of `Cc1cc(C(=O)NCCC(=O)O)sc1S(=O)(=O)Nc1cc(C(F)(F)F)ccc1Cl`, 3500 nM.
In turn, `Cc1cc(C(=O)NCc2nnn[nH]2)sc1S(=O)(=O)Nc1cc(C(F)(F)F)ccc1Cl` showed an IC50 of 420 nM.
Regarding `Cc1cc(C(=O)N[C@H](Cc2ccccc2)C(=O)NS(=O)(=O)c2ccccc2)sc1S(=O)(=O)Nc1cc(C(F)(F)F)ccc1Cl`, the IC50 was 53 nM. This IC50 lies about 7.9-fold lower than the previous one.
Compound `O=S(=O)(Nc1ccc2ccccc2c1)c1cc(Cl)ccc1Cl` yielded an IC50 of over 25000 nM.
In turn, `Cc1cc(C(=O)N[C@H](Cc2ccccc2)C(=O)O)sc1S(=O)(=O)Nc1cc(C(F)(F)F)ccc1Cl` showed an IC50 of 181 nM.
Still for that read-out and setting: the figure for `Cc1ccc(F)cc1S(=O)(=O)Nc1cc(C(F)(F)F)ccc1Cl` is 5500 nM; for `CN(C)c1ccc(S(=O)(=O)N(C)C)cc1NS(=O)(=O)c1cc(Cl)ccc1Cl` it is 18000 nM.
Turning to `Cc1cc(C(=O)N[C@H](Cc2c[nH]c3ccccc23)C(=O)O)sc1S(=O)(=O)Nc1cc(C(F)(F)F)ccc1Cl`, the IC50 is 210 nM.
On the same count and under the same terms, in the case of `Cc1ccccc1S(=O)(=O)Nc1cc(C(F)(F)F)ccc1Cl` it was 11000 nM.
Consider `O=S(=O)(Nc1cccc(C(F)(F)F)c1)c1cc(Cl)ccc1Cl`, for which the IC50 was over 25000 nM.
`O=S(=O)(Nc1cc(Cl)c(Cl)cc1Cl)c1cc(Cl)ccc1Cl` yielded an IC50 of 9000 nM.
For the compound `Cc1cc(C(=O)N[C@H](Cc2ccccc2)c2nnn[nH]2)sc1S(=O)(=O)Nc1cc(C(F)(F)F)ccc1Cl`, the IC50 was 153 nM. Against the preceding compound, the IC50 is about 59-fold lower.
Same read-out and setting: the figure for `O=C(Nn1cnnc1)c1cccc(S(=O)(=O)Nc2cc(C(F)(F)F)ccc2Cl)c1` is 19000 nM; for `O=S(=O)(Nc1cc(C(F)(F)F)ccc1Cl)c1cc(Cl)ccc1Cl` it is 149 to 3100 nM; for `CC(C)c1cccc(NS(=O)(=O)c2cc(Cl)ccc2Cl)c1` it is over 25000 nM.
Same read-out and setting: in the case of `Cc1ccc([N+](=O)[O-])cc1NS(=O)(=O)c1cc(Cl)ccc1Cl` it was 20000 nM; in that of `O=S(=O)(Nc1cc(Cl)ccc1Cl)c1cc(Cl)ccc1Cl`, 11000 nM; in that of `Cc1cc(C(=O)NCC(=O)O)sc1S(=O)(=O)Nc1cc(C(F)(F)F)ccc1Cl`, 470 nM.
Still for that read-out and setting: the figure for `O=S(=O)(Nc1ccc(Cl)cc1Cl)c1cc(Cl)ccc1Cl` is 21000 nM; for `Cc1cc(C(=O)NS(C)(=O)=O)sc1S(=O)(=O)Nc1cc(C(F)(F)F)ccc1Cl` it is 1070 nM; for `Cc1cc(C(=O)N[C@H](COCc2ccccc2)C(=O)O)sc1S(=O)(=O)Nc1cc(C(F)(F)F)ccc1Cl` it is 310 nM.
`Cc1cc(C(=O)N2CCN(C(=O)OC(C)(C)C)C[C@H]2C(=O)O)sc1S(=O)(=O)Nc1cc(C(F)(F)F)ccc1Cl`: the IC50 is 630 nM. Compared with the last compound, the IC50 is about 2-fold higher.
Same read-out and setting: in the case of `COC(=O)[C@@H](Cc1ccccc1)NC(=O)c1cc(C)c(S(=O)(=O)Nc2cc(C(F)(F)F)ccc2Cl)s1` it was 145 nM.
The same measure, in the same setting: the figure for `O=S(=O)(Nc1ccccc1Cl)c1cc(Cl)ccc1Cl` is over 25000 nM; for `O=S(=O)(Nc1cc(C(F)(F)F)ccc1Cl)c1c(Cl)cccc1Cl` it is 7300 nM; for `Cc1cc2c(cc1S(=O)(=O)Nc1cc(C(F)(F)F)ccc1Cl)OCC(=O)N2` it is 1800 nM.
The same measure, in the same setting: the figure for `Cc1cc(C(=O)NC(Cc2ccccc2)Cc2ccccc2)sc1S(=O)(=O)Nc1cc(C(F)(F)F)ccc1Cl` is 7100 nM.
On to `Cc1cc(C(=O)N[C@H](Cc2ccc(-c3ccccc3)cc2)C(=O)O)sc1S(=O)(=O)Nc1cc(C(F)(F)F)ccc1Cl`, for which the IC50 amounted to 2800 nM.
On the same count and under the same terms, in the case of `Cc1cc(F)ccc1S(=O)(=O)Nc1cc(C(F)(F)F)ccc1Cl` it was 10000 nM; in that of `Cn1ccnc1S(=O)(=O)Nc1cc(C(F)(F)F)ccc1Cl`, 17000 nM; in that of `Cc1cc(C(=O)N[C@H](Cc2cccnc2)C(=O)O)sc1S(=O)(=O)Nc1cc(C(F)(F)F)ccc1Cl`, 380 nM.
Same read-out and setting: in the case of `Cc1cc(C(=O)N2CCCC[C@H]2C(=O)O)sc1S(=O)(=O)Nc1cc(C(F)(F)F)ccc1Cl` it was 1000 nM; in that of `Cc1cc(C(=O)N[C@@H](C(=O)O)C(C)C)sc1S(=O)(=O)Nc1cc(C(F)(F)F)ccc1Cl`, 660 nM.
Take `Cc1cc(C(=O)NC2(C(=O)O)CC2)sc1S(=O)(=O)Nc1cc(C(F)(F)F)ccc1Cl`: the IC50 amounted to 1500 nM.
Compound `Cc1cc(C(=O)NC[C@@H](O)c2ccccc2)sc1S(=O)(=O)Nc1cc(C(F)(F)F)ccc1Cl` showed an IC50 of 149 nM. This IC50 is about 10-fold lower than that of the compound before.
`Cc1cc(C(=O)N[C@@H](Cc2ccccc2)C(=O)O)sc1S(=O)(=O)Nc1cc(C(F)(F)F)ccc1Cl` displayed an IC50 of 750 nM.
The same measure, in the same setting: in the case of `O=S(=O)(Nc1cc(C(F)(F)F)ccc1Cl)c1ccccc1Cl` it was 13000 nM; in that of `COC(=O)c1cc(C)c(S(=O)(=O)Nc2cc(C(F)(F)F)ccc2Cl)s1`, 1900 nM.
The same measure, in the same setting: the figure for `Cc1cc(C(=O)N[C@H](Cc2c[nH]cn2)C(=O)O)sc1S(=O)(=O)Nc1cc(C(F)(F)F)ccc1Cl` is 920 nM; for `Cc1cc(C(=O)NC(Cc2ccccc2)C(=O)O)sc1S(=O)(=O)Nc1cc(C(F)(F)F)ccc1Cl` (stereo unspecified) it is 300 nM; for `Cc1cc(C(=O)NCCc2ccccc2)sc1S(=O)(=O)Nc1cc(C(F)(F)F)ccc1Cl` it is 810 nM.
Still for that read-out and setting: in the case of `Cc1cc(C(=O)NC2CCc3ccccc3C2)sc1S(=O)(=O)Nc1cc(C(F)(F)F)ccc1Cl` (stereo unspecified) it was 4200 nM; in that of `O=S(=O)(Nc1ccn[nH]1)c1cc(Cl)ccc1Cl`, over 25000 nM.
The compound `Cc1cc(C(=O)N(CCc2ccccc2)CC(=O)O)sc1S(=O)(=O)Nc1cc(C(F)(F)F)ccc1Cl` registered an IC50 of 690 nM.
Consider `Cc1cc(C(=O)NCCc2ccc(Oc3ccccc3)cc2)sc1S(=O)(=O)Nc1cc(C(F)(F)F)ccc1Cl`, for which the IC50 stood at 7000 nM.
The same measure, in the same setting: the figure for `O=S(=O)(Nc1cc(C(F)(F)F)ccc1Cl)c1sc(Cl)cc1Cl` is 8600 nM.
Still for that read-out and setting: in the case of `Cc1nn(C)c(Cl)c1S(=O)(=O)Nc1cc(C(F)(F)F)ccc1Cl` it was 23000 nM.
As for `Cc1cc(C(=O)N[C@H](C)C(=O)O)sc1S(=O)(=O)Nc1cc(C(F)(F)F)ccc1Cl`, the IC50 was 1500 nM. Against the preceding compound, the IC50 is about 15-fold lower.
Still for that read-out and setting: in the case of `Cc1cc(C(=O)N[C@H](Cc2ccccc2)C(=O)NS(C)(=O)=O)sc1S(=O)(=O)Nc1cc(C(F)(F)F)ccc1Cl` it was 73 nM.

Tested on in the next data set: not listed separately
Kind of data set: Solubility of the compound.
Details: not given
The format is physicochemical.
Take `Cc1cc(C(=O)N[C@H](Cc2ccccc2)C(=O)O)sc1S(=O)(=O)Nc1cc(C(F)(F)F)ccc1Cl`: the solubility (commonly the dissolved amount per volume that the medium holds) was 100 µM (≈ 54.7 µg/mL).
Regarding `Cc1cc(C(=O)N[C@H](Cc2c[nH]c3ccccc23)C(=O)O)sc1S(=O)(=O)Nc1cc(C(F)(F)F)ccc1Cl`, the concentration in solution (solubility) was 100 µM (≈ 58.6 µg/mL).

The target in another data set is T1, Induced myeloid leukemia cell differentiation protein Mcl-1. As to the kind of experiment: Binding affinity to biotin-labelled TEV-fused GST-tagged MCl-1 (unknown origin) by surface plasmon resonance analysis.
Details: not given
For `Cc1cc(C(=O)NC[C@@H](O)c2ccccc2)sc1S(=O)(=O)Nc1cc(C(F)(F)F)ccc1Cl`, the affinity, expressed as Kd, was 165 nM.

Tested on in a further data set: not listed separately
As to the kind of experiment: Stability in mouse liver microsomes assessed as parent compound remaining after 30 mins. The format is ADME, Microsome. The settings on record: read-out: Stability. (In general: Liver microsomes are a subcellular fraction often used to study metabolism.)
`Cc1cc(C(=O)N[C@H](Cc2ccccc2)C(=O)NS(=O)(=O)c2ccccc2)sc1S(=O)(=O)Nc1cc(C(F)(F)F)ccc1Cl`: the remaining at 0.5 h is 81%.
Same read-out and setting: the figure for `Cc1cc(C(=O)N[C@H](Cc2ccccc2)C(=O)O)sc1S(=O)(=O)Nc1cc(C(F)(F)F)ccc1Cl` is 95%; for `Cc1cc(C(=O)N[C@H](Cc2c[nH]c3ccccc23)C(=O)O)sc1S(=O)(=O)Nc1cc(C(F)(F)F)ccc1Cl` it is 94%.
Same read-out and setting: the figure for `Cc1cc(C(=O)N[C@H](Cc2ccccc2)C(=O)NS(C)(=O)=O)sc1S(=O)(=O)Nc1cc(C(F)(F)F)ccc1Cl` is 91%.

Tested on in a further data set: not listed separately
Kind of data set: Stability in human liver microsomes assessed as parent compound remaining after 30 mins. The class given is ADME, Microsome. The settings on record: read-out: Stability.
Take `Cc1cc(C(=O)N[C@H](Cc2ccccc2)C(=O)NS(=O)(=O)c2ccccc2)sc1S(=O)(=O)Nc1cc(C(F)(F)F)ccc1Cl`: the remaining at 0.5 h stood at 74%.
Same read-out and setting: in the case of `Cc1cc(C(=O)N[C@H](Cc2ccccc2)C(=O)O)sc1S(=O)(=O)Nc1cc(C(F)(F)F)ccc1Cl` it was 66%; in that of `Cc1cc(C(=O)N[C@H](Cc2c[nH]c3ccccc23)C(=O)O)sc1S(=O)(=O)Nc1cc(C(F)(F)F)ccc1Cl`, 98%; in that of `Cc1cc(C(=O)N[C@H](Cc2ccccc2)C(=O)NS(C)(=O)=O)sc1S(=O)(=O)Nc1cc(C(F)(F)F)ccc1Cl`, 99%.
